Measurements as given in US20180193209A1, “A POLYMER PRODUCT AND PREPARATION THEROF” (SINGAPORE HEALTH SERVICES PTE LTD., priority 2015, published 2018).

System: Human dermal fibroblast cells
Experiment: MTS-based cell viability assay on fiber mats
Settings: 24 hours culture
Protocol: Human dermal fibroblast cells were cultured according to the procedures recited in Biomacromolecules, 2005, 6 (5), pp 2583-2589. Briefly, cells were cultured in DMEM medium (Gibco®) supplemented with 10% (v/v) fetal bovine serum, 50 U/ml penicillin and 50 μg/ml streptomycin in a humidified incubator at 37° C. and 5% CO2. All the cell culture reagents were obtained from Life Technologies Corporation (Singapore). For biocompatibility experiments, cells were seeded onto the coverslips precoated with scaffolds and placed at the bottom of the 12-well plates (Nunc®) at a density of 10×10^4 cells/well and allowed to grow for 24 hours before analysis. For the negative control well(s), nocodazole was added to a final concentration of 5 μg/mL in the culture medium.
Cell viability was determined using CellTier 96® Aqueous One solution cell proliferation assay kit according to the manufacturer's instruction (Promega Corporation, Madison, Wis.), and according to the procedures recited in Kim B J et al., Reinforced multifunctionalized nanofibrous scaffolds using mussel adhesive proteins, Angew Chem Int Ed Eng, 2012; 51:675-8. This assay evaluates mitochondrial function by measuring the ability of viable cells to reduce MTS ((3-(4,5-dimethylthiazol-2-yl)-5-(3-carboxymethoxyphenyl)-2-(4-sulfophenyl)-2H-tetrazolium)) into a quantifiable […] formazon product. […]

SMILES: COC(=O)Nc1nc2ccc(C(=O)c3cccs3)cc2[nH]1 [nocodazole]
- effect on cell viability (MTS): significant cell death
